Test system: Helicobacter infection
Assay: Vac A treatment of patients with pemphygus, allergic dermatitis and atopy
Assay type: in vivo
Details: more chronic and persistent cases, 25 to 75 mg bid
Method: Vacuolating Toxin A (recombinant Vac A; Austral Biologicals, catalog number HPA-5010-4) at 0.01 mg/ml in bacteriostatic water and 0.2 ml was injected subcutaneously 2-6 times per day at intervals of at least one hour to patients with various conditions associated with evidence of Helicobacter infection.

SMILES: CN(C)CCOC(c1ccccc1)c1ccccc1 [diphenhydramine]
- use as supplement to Vac A therapy: used successfully

— US20060078919A1, “Diagnostic test kit and methods of diagnosis and treatment of helicobacter SPP. associated infections” (Harry C. Gurney Janice Gurney, priority 2004, published 2006)
